Source: patent publication US20210213001A1, “METHOD OF TREATING A SLEEP BREATHING DISORDER” (Monash University, priority 2018, published 2021)

What was measured:
[1] = system: anaesthetised, hyperventilated Domperidone-treated lamb; assay: Periodic breathing induced by transient hyperventilation in the anaesthetised Domperidone-treated lamb (model of elevated loop gain); format: in vivo; conditions: for effect on average value of loop gain across the epoch / effect on epoch duration / effect on number of cycles in epochs of periodic breathing following hyperventilation / number of cycles of ventilation and apnea in the epoch of periodic breathing / duration of the epoch of periodic breathing / average value of loop gain across the epoch of periodic breathing: 5 mg/kg i.v.; for effect on average value of loop gain across the epoch / effect on epoch duration / effect on number of cycles in epochs of periodic breathing following hyperventilation: before vs after drug, Retigabine lambs 1-3, Flupirtine lamb 4; for number of cycles of ventilation and apnea in the epoch of periodic breathing / duration of the epoch of periodic breathing / average value of loop gain across the epoch of periodic breathing: single lamb; for number of cycles of ventilation and apnea in the epoch of periodic breathing / duration of the epoch of periodic breathing: about 1 hour after drug; for number of cycles of ventilation and apnea in the epoch of periodic breathing: same lamb before drug: 30 (Retigabine lamb), 24 (Flupirtine lamb); for duration of the epoch of periodic breathing: same lamb before drug: 6 minutes (Retigabine lamb), 320 seconds (Flupirtine lamb); for average value of loop gain across the epoch of periodic breathing: duty ratio method, same lamb before drug: 1.71 (Retigabine lamb), 1.51 (Flupirtine lamb)
From the text: To determine the effects of the KCNQ channel openers Retigabine and Flupirtine on loop gain and periodic breathing in the anaesthetised, hyperventilated Domperidone-treated lamb.
This animal model provides a robust preparation to test the effects of candidate drugs for the treatment of disordered breathing associated with increased peripheral chemosensitivity and elevated loop gain.
Young lambs (Merino/Border-Leicester cross, 14-18 kg) were instrumented surgically and maintained through the experimental protocol according to the method described by Edwards et al. (2008). Briefly, a non-occlusive catheter was placed in the left jugular vein for the induction of anaesthesia using a loading dose of ketamine hydrochloride (5 mg/kg) followed by alpha-chloralose (80 mg/kg as a starting bolus, then as a continuous infusion at 20 mg/kg/hr. Supplemental doses of alpha-chloralose were administered as needed to maintain adequate anaesthesia. A glucose-saline solution was infused through the same catheter to maintain fluid levels (5% glucose in 0.9% saline at 4 ml/kg/hr). A tracheal tube was inserted and connected to a dual intermittent mechanical ventilator (IMV)/high frequency oscillatory ventilator (Humming2; BMO-20H) used in the IMV mode. Use of a 4-way Hans Rudolf valve enabled the lamb to be ventilated artificially or to breathe spontaneously from a circuit through which a flow of gas was maintained at 45 L/min, or from the room air. Measurements of respiratory flow, tidal volume and end-expired gases were made on the tracheal line. Respiratory flow was measured using a Hans Rudolph (3500A) pneumotachograph that was linear up to 35 l/min, in conjunction with a Gaeltec 8T-2 differential pressure transducer connected to a carrier amplifier (Hewlett Packard 8805B) and thence to an HP-8815A electronic integrator to determine tidal volume. Non-occlusive catheters were placed in the right jugular vein and a carotid artery for the intravenous administration of drugs, the sampling of venous and arterial blood gases and the monitoring of blood pressure. Arterial blood pressure was measured using a Micron MP-15 blood pressure transducer connected to a Hewlett-Packard 8805B carrier amplifier. A rectal probe was used to monitor body temperature, which was maintained within the range of 40.0±1.0° C. using an overhead radiant heater. Arterial oxygen saturation was measured continuously using a Nellcor pulse oximeter (Model N-200E) with the probe placed in the trans-mandibular position in such a way that the optical path included the soft tissues of the jaw but excluded the tongue.
Domperidone (0.5 mg/kg in 30 ml 0.1% lactic acid), Flupirtine (as Flupirtine maleate, 5 mg/kg in 30 ml distilled water) and Retigabine (5 mg/kg in 30 ml distilled water) were each administered over a period of 5 minutes via the jugular vein catheter.
Lambs breathed room air (atmospheric) throughout the experimental protocol. Domperidone was administered at the commencement of the experimental protocol. […] Epochs of periodic breathing were induced by switching the tracheal tube to the ventilator circuit and hyperventilating the lamb with air for at least 5 minutes to reduce end tidal CO2 to a level that produced apnea when the ventilator was switched off. […] Typically, an extended epoch of periodic breathing followed the post-hyperventilation apnea. Once the ventilation parameters for achieving a post-hyperventilation apnea as described above were established for a particular animal, the baseline ventilatory response to hyperventilation was determined by performing two standardised hyperventilation procedures 10-15 minutes apart. The test drug (Flupirtine or Retigabine) was then administered and, approximately 1 hour later, another two hyperventilation procedures were performed 10-15 minutes apart.
Minute ventilation was calculated breath-by-breath using the breath duration determined from the respiratory flow trace and the tidal volume signal from the integrator. […]

[2] = system: young lambs; conditions: cited from earlier work

SMILES	epochs of periodic breathing on hyperventilation ([1]; Domperidone 0.5 mg/kg alone, 30 minutes or more after administration)	typical duration of epochs of periodic breathing ([1]; Domperidone 0.5 mg/kg alone, before test drug) [min]	duration of blocking effect ([2]; 0.5 mg/kg dose to a lamb, previous research (Kressin et al. 1986))	effect on loop gain of the respiratory control system ([2]; young lambs, Edwards et al. (2008))	effect on average value of loop gain across the epoch [1]	effect on epoch duration [1]	effect on number of cycles in epochs of periodic breathing following hyperventilation [1]	number of cycles of ventilation and apnea in the epoch of periodic breathing [1] [cycles]	duration of the epoch of periodic breathing [1] [s]	average value of loop gain across the epoch of periodic breathing [1]
O=c1[nH]c2ccccc2n1CCCN1CCC(n2c(=O)[nH]c3cc(Cl)ccc32)CC1 [Domperidone]	reliably elicited epochs of periodic breathing	2 to 5	at least three hours	increases						
CCOC(=O)Nc1ccc(NCc2ccc(F)cc2)nc1N [Flupirtine]					reduced	reduced	significantly reduced	9	130	1.16
CCOC(=O)Nc1ccc(NCc2ccc(F)cc2)cc1N [Retigabine]					reduced	reduced	significantly reduced	6	115	1.24
